Results taken from patent publication US20010011063A1, “Substituted 2,4-diamino-1,3,5-triazines, processes for their preparation and their use as herbicides and plant growth regulators” (priority 1999, published 2001).

Key:
Type in all cases: in vivo
[1] = tested on: Sinapis alba, Echinochloa crus-galli, Lolium multiforum, Stellaria media, Cyperus iria, Amaranthus retroflexus, Settaria viridis and Avena sativa; experiment: Post-emergence effect on weeds (greenhouse pot test); settings: application rate of 1 kg or less of active substance per hectare; treated at the three-leaf stage; scored visually after about 3 to 4 weeks vs untreated controls
[2] = tested on: Cyperus monti, Echinochloa crus-galli and Sagitaria pygmaea; experiment: Action on harmful plants in rice (paddy rice conditions); settings: poured into the dammed water, visual scoring about three weeks after application; further: test concentration or dose not given here
[3] = tested on: Stellaria media, Lolium multiflorum, Amaranthus retroflexus, Sinapis alba, Avena sativa and Settaria viridis; experiment: Pre-emergence effect on weeds (greenhouse pot test); settings: application rate of 1 kg or less of active substance per hectare; visually scored after 3 to 4 weeks by comparison with untreated controls
Text: Seeds or rhizome pieces of mono and dicotyledonous weed plants are placed in sandy loam soil in plastic pots and covered with soil. The compounds according to the invention which are formulated in the form of wettable powders or emulsion concentrates are then applied to the soil cover in the form of aqueous suspensions or emulsions at an application rate of 600 to 800 l of water/ha (converted), in various dosages.

COc1cccc(CCCC(Nc2nc(N)nc(C(C)(C)F)n2)C2CCC2)c1 (stereo not drawn) [Example 4-76]
very good herbicidal activity: herbicidal activity post-emergence against harmful plants [1] | herbicidal activity against harmful plants which are typical for rice crops [2] | herbicidal activity pre-emergence against harmful plants [3]

CC(C)Cc1nc(N)nc(NC(Cc2ccccc2)CC2CC2)n1 (stereo not drawn) [Example 5-1]
very good herbicidal activity: herbicidal activity post-emergence against harmful plants [1] | herbicidal activity against harmful plants which are typical for rice crops [2] | herbicidal activity pre-emergence against harmful plants [3]

CC(C)(F)c1nc(N)nc(NC(Cc2ccccc2)CC2CC2)n1 (stereo not drawn) [Example 5-2]
very good herbicidal activity: herbicidal activity post-emergence against harmful plants [1] | herbicidal activity against harmful plants which are typical for rice crops [2] | herbicidal activity pre-emergence against harmful plants [3]

CC(C)c1nc(N)nc(NC(Cc2ccccc2)CC2CC2)n1 (stereo not drawn) [Example 5-3]
very good herbicidal activity: herbicidal activity post-emergence against harmful plants [1] | herbicidal activity against harmful plants which are typical for rice crops [2] | herbicidal activity pre-emergence against harmful plants [3]

CC(C)c1nc(N)nc(NC(CCCCc2ccccc2)C2CC2)n1 (stereo not drawn) [Example 5-43]
very good herbicidal activity: herbicidal activity post-emergence against harmful plants [1] | herbicidal activity against harmful plants which are typical for rice crops [2] | herbicidal activity pre-emergence against harmful plants [3]

CC(C)(F)c1nc(N)nc(NC(CCCCc2ccccc2)C2CC2)n1 (stereo not drawn) [Example 5-44]
very good herbicidal activity: herbicidal activity post-emergence against harmful plants [1] | herbicidal activity against harmful plants which are typical for rice crops [2] | herbicidal activity pre-emergence against harmful plants [3]

CC(C)(F)c1nc(N)nc(NC(CCCCc2ccccc2)C2CCC2)n1 (stereo not drawn) [Example 5-47]
very good herbicidal activity: herbicidal activity post-emergence against harmful plants [1] | herbicidal activity against harmful plants which are typical for rice crops [2] | herbicidal activity pre-emergence against harmful plants [3]

CC(C)Cc1nc(N)nc(N[C@H](Cc2ccccc2)CC2CC2)n1 [Example 6-1]
very good herbicidal activity: herbicidal activity post-emergence against harmful plants [1] | herbicidal activity against harmful plants which are typical for rice crops [2] | herbicidal activity pre-emergence against harmful plants [3]

CC(C)(F)c1nc(N)nc(N[C@H](Cc2ccccc2)CC2CC2)n1 [Example 6-2]
very good herbicidal activity: herbicidal activity post-emergence against harmful plants [1] | herbicidal activity against harmful plants which are typical for rice crops [2] | herbicidal activity pre-emergence against harmful plants [3]

CC(C)c1nc(N)nc(N[C@H](Cc2ccccc2)CC2CC2)n1 [Example 6-3]
very good herbicidal activity: herbicidal activity post-emergence against harmful plants [1] | herbicidal activity against harmful plants which are typical for rice crops [2] | herbicidal activity pre-emergence against harmful plants [3]

CC(C)c1nc(N)nc(N[C@H](CCCCc2ccccc2)C2CC2)n1 [Example 6-43]
very good herbicidal activity: herbicidal activity post-emergence against harmful plants [1] | herbicidal activity against harmful plants which are typical for rice crops [2] | herbicidal activity pre-emergence against harmful plants [3]

CC(C)(F)c1nc(N)nc(N[C@H](CCCCc2ccccc2)C2CC2)n1 [Example 6-44]
very good herbicidal activity: herbicidal activity post-emergence against harmful plants [1] | herbicidal activity against harmful plants which are typical for rice crops [2] | herbicidal activity pre-emergence against harmful plants [3]

CC(C)(F)c1nc(N)nc(N[C@H](CCCCc2ccccc2)C2CCC2)n1 [Example 6-47]
very good herbicidal activity: herbicidal activity post-emergence against harmful plants [1] | herbicidal activity against harmful plants which are typical for rice crops [2] | herbicidal activity pre-emergence against harmful plants [3]
